Ki and EC50 data for 6 compounds are collected here from patent US12723063B2, “GIPR-agonist compounds” (Eli Lilly and Company, priority 2019, dated 2026).

*1 amine or outer side, *2 acyl side, *3 side chain or, on linkers, in order; H or OH if unused. Where a SMILES comes first, the peptide text is derived from it. Side-chain parts run from the residue outwards. [ ]: non-standard residue; d: D form. The star is where a group is joined. C20 diacid = O=C(O)CCCCCCCCCCCCCCCCCCC(=O)*; C18 diacid = O=C(O)CCCCCCCCCCCCCCCCC(=O)*; αMePhe(2-F) = C[C@](N)(Cc1ccccc1F)C(=O)O; γGlu = O=C(O)[C@H](CCC(=O)[*:2])N[*:1]; αMeL = CC(C)C[C@](C)(N)C(=O)O; AEEA = NCCOCCOCC(=O)O; Aib = CC(C)(N)C(=O)O

The target of one assay is T1, human GLP-1R (Homo sapiens, UniProt P43220).
T1 construct: expressed in transfected cells; crude membranes
Put plainly: [125I]-GLP-1 binding, SPA with WGA beads, 0.1% bacitracin. To be noted: geometric mean, read-out: hGLP1R Ki. In a few lines: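 Binding buffer was 25 mM HEPES pH 7.4 with 2.5 mM CaCl2, 1 mM MgCl2, 0.1% (w/v) bacitracin, 0.003% Tween-20 and EDTA-free protease inhibitors. Four-parameter regression gave IC50, converted to Ki (geometric mean, SEM, n independent days).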

For assay [1], the target named is T2, human glucagon receptor (GcgR) (Homo sapiens, UniProt P47871).
T2 construct: expressed in transfected cells; host or cells: HEK293
Put plainly: cAMP functional assay (HTRF) in HEK293 cells in presence of 0.1% casein. Type of assay: cell-based. To be noted: HEK293 cells expressing human GcgR, geometric mean, read-out: hGcgR cAMP Rel EC50 nM (SEM, n). For orientation: In TR-FRET formats the signal depends on donor and acceptor labels being close together.

T2 sequence (P47871 26-477): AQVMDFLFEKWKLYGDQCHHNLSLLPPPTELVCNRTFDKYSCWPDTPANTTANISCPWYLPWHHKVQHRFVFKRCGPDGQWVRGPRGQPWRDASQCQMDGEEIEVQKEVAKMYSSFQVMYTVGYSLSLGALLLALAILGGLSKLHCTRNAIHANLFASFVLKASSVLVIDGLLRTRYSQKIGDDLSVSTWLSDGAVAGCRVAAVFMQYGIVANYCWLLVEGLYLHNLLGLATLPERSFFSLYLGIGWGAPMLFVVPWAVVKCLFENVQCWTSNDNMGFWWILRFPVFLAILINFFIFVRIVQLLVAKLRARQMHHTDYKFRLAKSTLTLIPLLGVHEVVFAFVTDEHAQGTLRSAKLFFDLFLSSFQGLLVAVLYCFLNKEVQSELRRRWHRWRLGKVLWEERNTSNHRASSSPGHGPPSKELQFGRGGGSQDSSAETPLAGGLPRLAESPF
T1 sequence (P43220 24-463): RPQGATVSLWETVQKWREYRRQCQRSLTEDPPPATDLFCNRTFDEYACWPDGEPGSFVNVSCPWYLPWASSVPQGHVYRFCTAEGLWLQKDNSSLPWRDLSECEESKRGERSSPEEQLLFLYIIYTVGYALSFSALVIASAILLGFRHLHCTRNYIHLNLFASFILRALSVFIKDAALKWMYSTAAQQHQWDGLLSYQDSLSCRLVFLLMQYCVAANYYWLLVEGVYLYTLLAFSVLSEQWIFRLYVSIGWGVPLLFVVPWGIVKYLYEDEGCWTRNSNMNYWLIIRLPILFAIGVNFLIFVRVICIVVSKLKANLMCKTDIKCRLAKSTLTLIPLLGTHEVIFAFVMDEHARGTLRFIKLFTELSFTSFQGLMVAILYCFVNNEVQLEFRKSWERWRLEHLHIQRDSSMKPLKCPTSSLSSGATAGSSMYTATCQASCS

Regarding `CC[C@H](C)[C@H](NC(=O)[C@H](CO)NC(=O)[C@H](Cc1ccc(O)cc1)NC(=O)[C@H](CC(=O)O)NC(=O)[C@H](CO)NC(=O)[C@@H](NC(=O)[C@H](CC(C)C)NC(=O)[C@@H](NC(=O)CNC(=O)[C@H](CCC(=O)O)NC(=O)[C@@H](C)NC(=O)[C@@H](N)Cc1ccc(O)cc1)[C@@H](C)O)[C@@H](C)CC)C(=O)N[C@@H](CC(C)C)C(=O)N[C@@H](CC(C)C)C(=O)N[C@@H](CC(=O)O)C(=O)N[C@@H](CCCCN)C(=O)N[C@@H](CCCCNC(=O)COCCOCCNC(=O)COCCOCCNC(=O)CC[C@H](NC(=O)CCCCCCCCCCCCCCCCC(=O)O)C(=O)O)C(=O)N[C@@H](C)C(=O)N[C@@H](CCC(N)=O)C(=O)NC(C)(C)C(=O)N[C@@H](CC(=O)O)C(=O)N[C@@H](Cc1ccccc1)C(=O)N[C@H](C(=O)N[C@@H](CC(N)=O)C(=O)N[C@@H](Cc1c[nH]c2ccccc12)C(=O)N[C@@H](CC(C)C)C(=O)N[C@@H](CC(C)C)C(=O)N[C@@H](C)C(=O)N[C@@H](CCC(N)=O)C(=O)NCC(=O)N1CCC[C@H]1C(=O)N[C@@H](CO)C(=O)N[C@@H](CO)C(=O)NCC(=O)N[C@@H](C)C(=O)N1CCC[C@H]1C(=O)N1CCC[C@H]1C(=O)N1CCC[C@H]1C(=O)N[C@@H](CO)C(N)=O)C(C)C` [Example 32] (H-Y[dA]EGTLISDYSILLDKK([AEEA-AEEA-γGlu-C18 diacid])AQ[Aib]DFVNWLLAQGPSSGAPPPS-NH2), on human GLP-1R, the Ki is 85.2 nM. In addition, the EC50 in assay [1] was above 5000 nM.
With `CC[C@H](C)[C@H](NC(=O)[C@H](CO)NC(=O)[C@H](Cc1ccc(O)cc1)NC(=O)[C@H](CC(=O)O)NC(=O)[C@H](CO)NC(=O)[C@@H](NC(=O)[C@](C)(Cc1ccccc1F)NC(=O)[C@@H](NC(=O)CNC(=O)[C@H](CCC(=O)O)NC(=O)[C@H](C)NC(=O)[C@@H](Cc1ccc(O)cc1)NC(C)=O)[C@@H](C)O)[C@@H](C)CC)C(=O)N[C@@H](C)C(=O)N[C@@H](CC(C)C)C(=O)N[C@@H](CC(=O)O)C(=O)N[C@@H](CCCCN)C(=O)N[C@@H](CCCCNC(=O)COCCOCCNC(=O)COCCOCCNC(=O)CC[C@H](NC(=O)CCCCCCCCCCCCCCCCCCC(=O)O)C(=O)O)C(=O)N[C@@H](Cc1c[nH]cn1)C(=O)N[C@@H](CCC(N)=O)C(=O)NC(C)(C)C(=O)N[C@@H](CCC(=O)O)C(=O)N[C@@H](Cc1ccccc1)C(=O)N[C@H](C(=O)N[C@@H](CC(N)=O)C(=O)N[C@@H](Cc1ccc(O)cc1)C(=O)N[C@@H](CC(C)C)C(=O)N[C@@H](CC(C)C)C(=O)N[C@@H](CCC(=O)O)C(=O)NCC(=O)NCC(=O)N1CCC[C@H]1C(=O)N[C@@H](CO)C(=O)N[C@@H](CO)C(=O)NCC(=O)N[C@@H](C)C(=O)N1CCC[C@H]1C(=O)N1CCC[C@H]1C(=O)N1CCC[C@H]1C(=O)N[C@@H](CO)C(N)=O)C(C)C` [Example 33] (Ac-[dY]AEGT[αMePhe(2-F)]ISDYSIALDKK([AEEA-AEEA-γGlu-C20 diacid])HQ[Aib]EFVNYLLEGGPSSGAPPPS-NH2), at human GLP-1R, the Ki was 31.2 nM. Moreover, the EC50 in assay [1] is above 5000 nM.
For `CC[C@H](C)[C@H](NC(=O)[C@H](CO)NC(=O)[C@H](Cc1ccc(O)cc1)NC(=O)[C@H](CC(=O)O)NC(=O)[C@H](CO)NC(=O)[C@@H](NC(=O)[C@](C)(Cc1ccccc1F)NC(=O)[C@@H](NC(=O)CNC(=O)[C@H](CCC(=O)O)NC(=O)C(C)(C)NC(=O)[C@@H](N)Cc1ccc(O)cc1)[C@@H](C)O)[C@@H](C)CC)C(=O)N[C@@H](C)C(=O)N[C@@H](CC(C)C)C(=O)N[C@@H](CC(=O)O)C(=O)N[C@@H](CCCCN)C(=O)N[C@@H](CCCCNC(=O)COCCOCCNC(=O)COCCOCCNC(=O)CC[C@H](NC(=O)CCCCCCCCCCCCCCCCCCC(=O)O)C(=O)O)C(=O)N[C@@H](Cc1c[nH]cn1)C(=O)N[C@@H](CCC(N)=O)C(=O)NC(C)(C)C(=O)N[C@@H](CCC(=O)O)C(=O)N[C@@H](Cc1ccccc1)C(=O)N[C@H](C(=O)N[C@@H](CC(N)=O)C(=O)N[C@@H](Cc1ccc(O)cc1)C(=O)N[C@@H](CC(C)C)C(=O)N[C@@H](CC(C)C)C(=O)N[C@@H](C)C(=O)N[C@H](C(=O)NCC(=O)N1CCC[C@H]1C(=O)N[C@@H](CO)C(=O)N[C@@H](CO)C(=O)NCC(=O)N[C@@H](C)C(=O)N1CCC[C@H]1C(=O)N1CCC[C@H]1C(=O)N1CCC[C@H]1C(=O)N[C@@H](CO)C(N)=O)[C@@H](C)O)C(C)C` [Example 34] (H-Y[Aib]EGT[αMePhe(2-F)]ISDYSIALDKK([AEEA-AEEA-γGlu-C20 diacid])HQ[Aib]EFVNYLLATGPSSGAPPPS-NH2) the same measures were 201 nM and 913 nM.
For the compound `CC[C@H](C)[C@H](NC(=O)[C@H](CO)NC(=O)[C@H](Cc1ccc(O)cc1)NC(=O)[C@H](CC(=O)O)NC(=O)[C@H](CO)NC(=O)[C@@H](NC(=O)[C@](C)(CC(C)C)NC(=O)[C@@H](NC(=O)CNC(=O)[C@H](CCC(=O)O)NC(=O)C(C)(C)NC(=O)[C@@H](N)Cc1ccc(O)cc1)[C@@H](C)O)[C@@H](C)CC)C(=O)N[C@@H](C)C(=O)N[C@@H](CC(C)C)C(=O)N[C@@H](CC(=O)O)C(=O)N[C@@H](CCCCN)C(=O)N[C@@H](CCCCNC(=O)COCCOCCNC(=O)COCCOCCNC(=O)CC[C@H](NC(=O)CCCCCCCCCCCCCCCCCCC(=O)O)C(=O)O)C(=O)N[C@@H](Cc1c[nH]cn1)C(=O)N[C@@H](CCC(N)=O)C(=O)NC(C)(C)C(=O)N[C@@H](CCC(=O)O)C(=O)N[C@@H](Cc1ccccc1)C(=O)N[C@H](C(=O)N[C@@H](CC(N)=O)C(=O)N[C@@H](Cc1ccc(O)cc1)C(=O)N[C@@H](CC(C)C)C(=O)N[C@@H](CC(C)C)C(=O)N[C@@H](C)C(=O)N[C@H](C(=O)NCC(=O)N1CCC[C@H]1C(=O)N[C@@H](CO)C(=O)N[C@@H](CO)C(=O)NCC(=O)N[C@@H](C)C(=O)N1CCC[C@H]1C(=O)N1CCC[C@H]1C(=O)N1CCC[C@H]1C(=O)N[C@@H](CO)C(N)=O)[C@@H](C)O)C(C)C` [Example 35] (H-Y[Aib]EGT[αMeL]ISDYSIALDKK([AEEA-AEEA-γGlu-C20 diacid])HQ[Aib]EFVNYLLATGPSSGAPPPS-NH2), the Ki on human GLP-1R was determined as 177 nM. For the same compound, the EC50 in assay [1] was above 5000 nM.
Consider `CC[C@H](C)[C@H](NC(=O)[C@H](CO)NC(=O)[C@H](Cc1ccc(O)cc1)NC(=O)[C@H](CC(=O)O)NC(=O)[C@H](CO)NC(=O)[C@@H](NC(=O)[C@](C)(Cc1ccccc1F)NC(=O)[C@@H](NC(=O)CNC(=O)[C@H](CCC(=O)O)NC(=O)C(C)(C)NC(=O)[C@@H](N)Cc1ccc(O)cc1)[C@@H](C)O)[C@@H](C)CC)C(=O)N[C@@H](C)C(=O)N[C@@H](CC(C)C)C(=O)N[C@@H](CC(=O)O)C(=O)N[C@@H](CCCCN)C(=O)N[C@@H](CCCCNC(=O)COCCOCCNC(=O)COCCOCCNC(=O)CC[C@H](NC(=O)CCCCCCCCCCCCCCCCCCC(=O)O)C(=O)O)C(=O)N[C@@H](Cc1c[nH]cn1)C(=O)N[C@@H](CCC(N)=O)C(=O)NC(C)(C)C(=O)N[C@@H](CC(=O)O)C(=O)N[C@@H](Cc1ccccc1)C(=O)N[C@H](C(=O)N[C@@H](CCC(=O)O)C(=O)N[C@@H](Cc1ccc(O)cc1)C(=O)N[C@@H](CC(C)C)C(=O)N[C@@H](CC(C)C)C(=O)N[C@@H](CCC(=O)O)C(=O)N[C@H](C(=O)NCC(=O)N1CCC[C@H]1C(=O)N[C@@H](CO)C(=O)N[C@@H](CO)C(=O)NCC(=O)N[C@@H](C)C(=O)N1CCC[C@H]1C(=O)N1CCC[C@H]1C(=O)N1CCC[C@H]1C(=O)N[C@@H](CO)C(N)=O)[C@@H](C)O)C(C)C` [Example 36] (H-Y[Aib]EGT[αMePhe(2-F)]ISDYSIALDKK([AEEA-AEEA-γGlu-C20 diacid])HQ[Aib]DFVEYLLETGPSSGAPPPS-NH2), for which the Ki at human GLP-1R is 393 nM. Besides, in assay [1], the EC50 is above 5000 nM.
As to `CC[C@H](C)[C@H](NC(=O)[C@H](CO)NC(=O)[C@H](Cc1ccc(O)cc1)NC(=O)[C@H](CC(=O)O)NC(=O)[C@H](CO)NC(=O)[C@@H](NC(=O)[C@](C)(Cc1ccccc1F)NC(=O)[C@@H](NC(=O)CNC(=O)[C@H](CCC(=O)O)NC(=O)C(C)(C)NC(=O)[C@@H](N)Cc1ccc(O)cc1)[C@@H](C)O)[C@@H](C)CC)C(=O)N[C@@H](C)C(=O)N[C@@H](CC(C)C)C(=O)N[C@@H](CC(=O)O)C(=O)N[C@@H](CCCCN)C(=O)N[C@@H](CCCCNC(=O)COCCOCCNC(=O)COCCOCCNC(=O)CC[C@H](NC(=O)CCCCCCCCCCCCCCCCCCC(=O)O)C(=O)O)C(=O)N[C@@H](Cc1c[nH]cn1)C(=O)N[C@@H](CCC(N)=O)C(=O)NC(C)(C)C(=O)N[C@@H](CC(=O)O)C(=O)N[C@@H](Cc1ccccc1)C(=O)N[C@H](C(=O)N[C@@H](CCC(=O)O)C(=O)N[C@@H](Cc1ccc(O)cc1)C(=O)N[C@@H](CC(C)C)C(=O)N[C@@H](CC(C)C)C(=O)N[C@@H](CCC(=O)O)C(=O)NCC(=O)NCC(=O)N1CCC[C@H]1C(=O)N[C@@H](CO)C(=O)N[C@@H](CO)C(=O)NCC(=O)N[C@@H](C)C(=O)N1CCC[C@H]1C(=O)N1CCC[C@H]1C(=O)N1CCC[C@H]1C(=O)N[C@@H](CO)C(N)=O)C(C)C` [Example 37] (H-Y[Aib]EGT[αMePhe(2-F)]ISDYSIALDKK([AEEA-AEEA-γGlu-C20 diacid])HQ[Aib]DFVEYLLEGGPSSGAPPPS-NH2), at human GLP-1R, the Ki was 83.9 nM. For the same compound, in assay [1], the EC50 was above 5000 nM.

What is called Ki is the dissociation constant of the complex between target and ligand, obtained from inhibition or displacement. As usually defined, the EC50 is the concentration giving half of the maximal effect.
